Data from ChEMBL document CHEMBL4811244, “Design and synthesis of 1H-pyrazolo[3,4-b]pyridines targeting mitogen-activated protein kinase kinase 4 (MKK4) - A promising target for liver regeneration” (Eur J Med Chem, 2021).

Key:
[1] = molecular target: Mitogen-activated protein kinase kinase kinase 20 (Homo sapiens, UniProt Q9NYL2); experiment: Binding affinity to wild-type human partial length ZAK (M1 to L331 residues) expressed in bacterial expression system assessed as residual binding level at 100 nM by Kinomescan method relative to control
Sequence of Mitogen-activated protein kinase kinase kinase 20 (Q9NYL2 2-800 limits assumed): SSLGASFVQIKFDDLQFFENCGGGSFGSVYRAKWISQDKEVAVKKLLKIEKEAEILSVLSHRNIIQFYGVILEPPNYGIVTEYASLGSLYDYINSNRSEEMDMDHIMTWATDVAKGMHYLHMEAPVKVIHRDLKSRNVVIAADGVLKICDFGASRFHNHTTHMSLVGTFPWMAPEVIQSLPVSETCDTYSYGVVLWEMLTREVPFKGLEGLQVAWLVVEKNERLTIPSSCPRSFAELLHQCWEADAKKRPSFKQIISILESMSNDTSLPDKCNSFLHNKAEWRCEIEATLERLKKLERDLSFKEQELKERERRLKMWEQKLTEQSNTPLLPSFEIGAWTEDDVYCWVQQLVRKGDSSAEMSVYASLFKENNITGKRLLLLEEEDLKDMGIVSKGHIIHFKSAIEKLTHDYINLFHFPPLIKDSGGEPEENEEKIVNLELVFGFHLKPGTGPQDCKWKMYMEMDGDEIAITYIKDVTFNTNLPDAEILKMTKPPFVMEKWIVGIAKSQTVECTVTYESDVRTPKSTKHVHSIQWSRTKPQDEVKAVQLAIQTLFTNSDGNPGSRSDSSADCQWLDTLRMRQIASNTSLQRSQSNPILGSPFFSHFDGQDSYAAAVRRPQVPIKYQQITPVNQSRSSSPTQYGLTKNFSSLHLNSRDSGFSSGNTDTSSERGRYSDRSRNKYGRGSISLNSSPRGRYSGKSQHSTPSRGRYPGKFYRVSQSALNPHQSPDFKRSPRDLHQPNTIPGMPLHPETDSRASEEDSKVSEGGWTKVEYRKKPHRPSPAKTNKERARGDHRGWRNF

[2] = molecular target: Mitogen-activated protein kinase kinase kinase kinase 5 (Homo sapiens, UniProt Q9Y4K4); experiment: Binding affinity to wild-type human partial length MAP4K5 (M1 to P297 residues) expressed in bacterial expression system assessed as residual binding level at 100 nM by Kinomescan method relative to control
Sequence of Mitogen-activated protein kinase kinase kinase kinase 5 (Q9Y4K4 whole entry, looked up, the tested form may be a part): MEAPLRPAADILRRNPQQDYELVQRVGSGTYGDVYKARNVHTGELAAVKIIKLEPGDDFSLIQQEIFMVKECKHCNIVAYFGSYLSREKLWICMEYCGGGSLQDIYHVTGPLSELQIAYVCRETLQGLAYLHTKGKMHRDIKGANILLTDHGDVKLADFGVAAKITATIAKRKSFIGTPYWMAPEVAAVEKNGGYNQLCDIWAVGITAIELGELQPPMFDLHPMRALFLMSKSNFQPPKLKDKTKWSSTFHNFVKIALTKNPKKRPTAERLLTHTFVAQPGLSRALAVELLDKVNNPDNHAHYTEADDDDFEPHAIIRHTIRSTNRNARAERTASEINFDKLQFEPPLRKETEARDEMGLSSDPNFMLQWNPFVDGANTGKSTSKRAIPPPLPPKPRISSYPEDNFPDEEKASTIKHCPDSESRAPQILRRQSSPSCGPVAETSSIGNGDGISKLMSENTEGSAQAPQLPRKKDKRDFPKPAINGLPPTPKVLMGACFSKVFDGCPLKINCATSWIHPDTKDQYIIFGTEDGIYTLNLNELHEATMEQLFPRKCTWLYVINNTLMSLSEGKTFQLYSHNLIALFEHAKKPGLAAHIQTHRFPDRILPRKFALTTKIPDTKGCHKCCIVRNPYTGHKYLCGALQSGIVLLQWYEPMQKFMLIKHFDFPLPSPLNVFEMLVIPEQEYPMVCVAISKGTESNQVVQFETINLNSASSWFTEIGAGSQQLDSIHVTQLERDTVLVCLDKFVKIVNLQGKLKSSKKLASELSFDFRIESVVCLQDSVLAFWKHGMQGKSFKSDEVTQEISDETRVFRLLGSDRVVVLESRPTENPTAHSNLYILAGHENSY

[3] = molecular target: T1, Dual specificity mitogen-activated protein kinase kinase 7 (Homo sapiens) (UniProt O14733); experiment: Binding affinity to wild-type human full length MKK7 (M1 to R419 residues) expressed in mammalian expression system assessed as residual binding level at 100 nM by Kinomescan method relative to control
T1 sequence (whole entry): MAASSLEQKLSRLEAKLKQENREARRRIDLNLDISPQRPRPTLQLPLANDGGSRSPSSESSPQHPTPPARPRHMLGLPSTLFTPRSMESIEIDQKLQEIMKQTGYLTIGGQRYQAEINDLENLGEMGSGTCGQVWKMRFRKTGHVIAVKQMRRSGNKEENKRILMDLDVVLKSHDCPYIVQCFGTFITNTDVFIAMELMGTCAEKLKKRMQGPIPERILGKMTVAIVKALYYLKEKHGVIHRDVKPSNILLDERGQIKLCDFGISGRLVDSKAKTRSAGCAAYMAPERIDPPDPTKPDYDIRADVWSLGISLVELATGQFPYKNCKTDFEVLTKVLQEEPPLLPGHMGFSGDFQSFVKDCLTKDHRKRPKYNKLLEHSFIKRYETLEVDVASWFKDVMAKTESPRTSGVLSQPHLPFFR

[4] = molecular target: T2, Dual specificity mitogen-activated protein kinase kinase 4 (Homo sapiens, UniProt P45985); experiment: Inhibition of MKK4 (unknown origin) by PanQinase assay
T2 sequence (P45985 whole entry): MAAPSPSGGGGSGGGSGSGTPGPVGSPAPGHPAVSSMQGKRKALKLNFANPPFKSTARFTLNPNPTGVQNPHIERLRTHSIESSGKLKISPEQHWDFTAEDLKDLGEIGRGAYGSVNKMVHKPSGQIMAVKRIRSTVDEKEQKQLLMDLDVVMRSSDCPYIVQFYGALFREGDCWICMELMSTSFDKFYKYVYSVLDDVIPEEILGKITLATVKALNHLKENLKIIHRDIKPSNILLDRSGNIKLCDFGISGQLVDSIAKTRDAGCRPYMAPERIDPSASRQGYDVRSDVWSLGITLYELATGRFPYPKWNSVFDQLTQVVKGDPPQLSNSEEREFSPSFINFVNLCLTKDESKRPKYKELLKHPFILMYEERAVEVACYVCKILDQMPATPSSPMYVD

SMILES | Activity [1] [%] | Activity [2] [%] | Activity [3] [%] | IC50 [4] [nM]
CCCS(=O)(=O)Nc1ccc(F)c(C(=O)c2n[nH]c3ncc(-c4ccccc4F)cc23)c1F | 32 | 59 | 83 | 
CCCS(=O)(=O)Nc1ccc(F)c(C(=O)c2n[nH]c3ncc(-c4ccc(OC)cc4)cc23)c1F | 1.9 | 28 | 100 | 
CCCS(=O)(=O)Nc1ccc(F)c(C(=O)c2n[nH]c3ncc(-c4ccccc4Cl)cc23)c1F | 64 | 96 | 100 | 
CCCS(=O)(=O)Nc1ccc(F)c(C(=O)c2n[nH]c3ncc(-c4ccc(S(C)(=O)=O)cc4)cc23)c1F | 21 | 14 | 100 | 
CCCS(=O)(=O)Nc1ccc(F)c(C(=O)c2n[nH]c3ncc(-c4ccc(NS(C)(=O)=O)cc4)cc23)c1F | 4.3 | 1.1 | 100 | 
CCCS(=O)(=O)Nc1ccc(F)c(C(=O)c2n[nH]c3ncc(-c4ccc(F)cc4)cc23)c1F | 4.8 | 59 | 100 | 
CCCS(=O)(=O)Nc1ccc(F)c(C(=O)c2n[nH]c3ncc(-c4ccc(S(=O)(=O)NCC)cc4)cc23)c1F | 32 | 26 | 100 | 
CCCS(=O)(=O)Nc1ccc(F)c(C(=O)c2n[nH]c3ncc(-c4ccc(C(F)(F)F)cc4)cc23)c1F | 75 | 76 | 100 | 
CCCS(=O)(=O)Nc1ccc(F)c(C(=O)c2n[nH]c3ncc(-c4ccc(C(N)=O)cc4)cc23)c1F | 8.1 | 10 | 99 | 
CCCS(=O)(=O)Nc1ccc(F)c(C(=O)c2n[nH]c3ncc(-c4ccc(S(N)(=O)=O)cc4F)cc23)c1F | 100 | 77 | 100 | 
CCCS(=O)(=O)Nc1ccc(F)c(C(=O)c2n[nH]c3ncc(-c4ccc(O)cc4)cc23)c1F | 0 | 9.4 | 87 | 
CCCS(=O)(=O)Nc1ccc(F)c(C(=O)c2n[nH]c3ncc(-c4ccc(Cl)c(Cl)c4)cc23)c1F | 85 | 100 | 100 | 
CCCS(=O)(=O)Nc1ccc(F)c(C(=O)c2n[nH]c3ncc(-c4cccc(C)c4)cc23)c1F | 5.5 | 18 | 100 | 
CCCS(=O)(=O)Nc1ccc(F)c(C(=O)c2n[nH]c3ncc(-c4cccc(N(C)C)c4)cc23)c1F | 9.7 | 11 | 100 | 
CCCS(=O)(=O)Nc1ccc(F)c(C(=O)c2n[nH]c3ncc(-c4ccccc4)cc23)c1F | 1.9 | 24 | 100 | 
CCCS(=O)(=O)Nc1ccc(F)c(C(=O)c2n[nH]c3ncc(-c4cccc(O)c4)cc23)c1F | 0.95 | 8 | 100 | 
CCCS(=O)(=O)Nc1ccc(F)c(C(=O)c2n[nH]c3ncc(-c4ccc(N(C)C)cc4)cc23)c1F | 2.2 | 31 | 100 | 
CCCS(=O)(=O)Nc1ccc(F)c(C(=O)c2n[nH]c3ncc(-c4ccc(C(C)C)cc4)cc23)c1F | 92 | 89 | 98 | 
CCCS(=O)(=O)Nc1ccc(F)c(C(=O)c2n[nH]c3ncc(-c4ccc(C)c(C)c4)cc23)c1F | 24 | 20 | 100 | 
CCCS(=O)(=O)Nc1ccc(F)c(C(=O)c2n[nH]c3ncc(-c4ccc(S(=O)(=O)NC(C)=O)cc4)cc23)c1F | 38 | 67 | 71 | 29
CCCS(=O)(=O)Nc1ccc(F)c(C(=O)c2n[nH]c3ncc(-c4cc(Cl)cc(Cl)c4)cc23)c1F | 66 | 99 | 100 | 
CS(=O)(=O)Nc1ccc(F)c(C(=O)c2n[nH]c3ncc(-c4ccc(S(N)(=O)=O)cc4)cc23)c1F | 100 | 99 | 99 | 
CCCS(=O)(=O)Nc1ccc(F)c(C(=O)c2n[nH]c3ncc(-c4ccc(C(=O)O)cc4)cc23)c1F | 7.5 | 75 | 27 | 
CCCS(=O)(=O)Nc1ccc(F)c(C(=O)c2n[nH]c3ncc(-c4ccccc4C)cc23)c1F | 41 | 67 | 100 | 

SMILES | Activity [1] [%] | Activity [2] [%] | Activity [3] [%] | IC50 [4] [nM]
CCCS(=O)(=O)Nc1ccc(F)c(C(=O)c2n[nH]c3ncc(-c4cccc(OC)c4)cc23)c1F | 23 | 24 | 100 | 
CCCS(=O)(=O)Nc1ccc(F)c(C(=O)c2n[nH]c3ncc(-c4cccc(F)c4)cc23)c1F | 12 | 65 | 97 | 
CCCS(=O)(=O)Nc1ccc(F)c(C(=O)c2n[nH]c3ncc(-c4ccc(S(N)(=O)=O)cc4Cl)cc23)c1F | 100 |  | 100 | 
CCCS(=O)(=O)Nc1ccc(F)c(C(=O)c2n[nH]c3ncc(-c4cccc(C(F)(F)F)c4)cc23)c1F | 44 | 98 | 100 | 
CCCS(=O)(=O)Nc1ccc(F)c(C(=O)c2n[nH]c3ncc(-c4cccc(Cl)c4)cc23)c1F | 16 | 69 | 100 | 
CCCS(=O)(=O)Nc1ccc(F)c(C(=O)c2n[nH]c3ncc(-c4cccc(N)c4)cc23)c1F | 2.3 | 3.8 | 86 | 
CCCS(=O)(=O)Nc1ccc(F)c(C(=O)c2n[nH]c3ncc(-c4ccccc4OC)cc23)c1F | 36 | 34 | 100 | 
CCCS(=O)(=O)Nc1ccc(F)c(C(=O)c2n[nH]c3ncc(-c4ccc(OC)cc4Cl)cc23)c1F | 74 | 53 | 100 | 
CCCS(=O)(=O)Nc1ccc(F)c(C(=O)c2n[nH]c3ncc(-c4ccc(S(N)(=O)=O)cc4C)cc23)c1F | 94 |  | 100 | 
CCCS(=O)(=O)Nc1ccc(F)c(C(=O)c2n[nH]c3ncc(-c4ccc(S(=O)(=O)NC)cc4)cc23)c1F | 33 | 17 | 100 | 
CCCS(=O)(=O)Nc1ccc(F)c(C(=O)c2n[nH]c3ncc(-c4ccccc4O)cc23)c1F | 9.7 | 39 | 100 | 
CCCS(=O)(=O)Nc1ccc(F)c(C(=O)c2n[nH]c3ncc(-c4ccc(S(N)(=O)=O)cc4)cc23)c1F | 91 | 100 | 98 | 89
CCCS(=O)(=O)Nc1ccc(F)c(C(=O)c2n[nH]c3ncc(-c4ccccc4N)cc23)c1F | 40 | 73 | 95 | 
CCCS(=O)(=O)Nc1ccc(F)c(C(=O)c2n[nH]c3ncc(-c4ccc(Cl)c(C(F)(F)F)c4)cc23)c1F | 20 | 16 | 100 | 
CCCS(=O)(=O)Nc1ccc(F)c(C(=O)c2n[nH]c3ncc(-c4ccc(C)cc4)cc23)c1F | 5.9 | 25 | 100 | 
CCCS(=O)(=O)Nc1ccc(F)c(C(=O)c2n[nH]c3ncc(-c4ccc(C(C)(C)C)cc4)cc23)c1F | 77 | 97 | 100 | 
CCCS(=O)(=O)Nc1ccc(F)c(C(=O)c2n[nH]c3ncc(-c4ccc(Cl)cc4Cl)cc23)c1F | 99 | 100 | 96 | 
CCCS(=O)(=O)Nc1ccc(F)c(C(=O)c2n[nH]c3ncc(-c4ccc([N+](=O)[O-])cc4)cc23)c1F | 23 | 61 | 100 | 
CCCS(=O)(=O)Nc1ccc(F)c(C(=O)c2n[nH]c3ncc(-c4ccc(N)cc4)cc23)c1F | 2.7 | 1.3 | 93 | 
CCCS(=O)(=O)Nc1ccc(F)c(C(=O)c2n[nH]c3ncc(-c4ccc(-c5nnn[nH]5)cc4)cc23)c1F | 20 | 81 | 64 | 
CCCS(=O)(=O)Nc1ccc(F)c(C(=O)c2n[nH]c3ncc(-c4ccc(F)cc4C)cc23)c1F | 65 | 55 | 100 | 
CCCS(=O)(=O)Nc1ccc(F)c(C(=O)c2n[nH]c3ncc(-c4cccc([N+](=O)[O-])c4)cc23)c1F | 52 | 93 | 95 | 
CCCCS(=O)(=O)Nc1ccc(F)c(C(=O)c2n[nH]c3ncc(-c4ccc(S(N)(=O)=O)cc4)cc23)c1F | 100 | 100 | 100 | 
